Patent US9084782B2, “Chemical inhibitors of cholesterol biosynthesis and venous angiogenesis” (The Regents of the University of California, priority 2011, dated 2015)

What was measured:
[1] = system: Tg(kdrl:GFP) zebrafish embryos; assay: Caudal vein plexus (CVP) formation / venous angiogenesis in Tg(kdrl:GFP) zebrafish embryos; format: in vivo; conditions: for anti-angiogenetic activity of aplexone analogs (inhibition of CVP formation / venous angiogenesis): SAR study, compared with aplexone; for ranking in the angiogenesis test: compounds of FIG. 11
Text: Images of GFP expression in Tg(kdrl:GFP) embryos were acquired using a Zeiss SV-11 epifluorescence microscope. Confocal images were acquired using a Carl Zeiss Laser Scanning Systems LSM510 equipped with 20× air, 20× water or 40× water immersion objectives. For single time point confocal images, embryos were anesthetized with 0.01% tricaine and embedded in 1% agarose. When capturing time-lapse confocal movies, embryos were mounted in 3.5% methylcellulose (Sigma-Aldrich) and imaged for 5 hrs on a heated stage at 28.5° C. The images obtained were analyzed using the Zeiss LSM Image Brower version 4 and Image J.
A synthetic chemical library containing 168 compounds (Castellano et al., 2007) and 300 chemicals from Biomol International LP, consisting of 72 ion channel inhibitors (Cat No. 2805), 84 kinase/phosphatase inhibitors (Cat No. 2831), 84 orphan ligands (Cat No. 2825), and 60 endocannabinoids (Cat No. 2801) were screened. The synthetic small molecules were prepared through nucleophilic phosphine catalysis of allenoates (Zhu et al., 2003). Four Tg(kdrl:GFP) embryos were placed into each well of 96-well plates containing a 10 μM solution of each chemical compound dissolved in embryo buffer with 0.1% DMSO. The embryos were raised at 28.5° C. and examined for defects in blood vessel development at 1 and 2 days after treatment. Standard parameters such as numbers of somites and head to body angle were used to determine the stages of zebrafish embryos (Kimmel et al., 1995).
Aplexone treatment described in this study was carried out at a concentration of 10 μM starting at 10 hpf unless otherwise specified.
8 ng tnnt2 MO (Gene Tools) (Sehnert et al., 2002), 3 nl of 4 mM GGTI-2133 (Calbiochem), 3 nl of 5 mM L744,832 (Calbiochem) and 1 nl of 2M mevalonate (Sigma-Aldrich) were injected into 1-2 cell stage embryos.
The library of 168 compounds^24 prepared through the nucleophilic phosphine catalysis of allenes were screened using Tg(kdrl:GFP) zebrafish. Four embryos were placed in each well of 96-well plates containing a 10 uM solution of each chemical compound dissolved in embryo buffer with 0.1% DMSO. The embryos were raised at 28.5° C. and defects in blood vessel development were examined at 1 and 2 days after fertilization.

HMGCR pathway = assay: Cholesterol assay in embryo lysate (Amplex Red); format: in vivo, zebrafish; conditions: relative to 0.4% DMSO control
Description: The yolk was removed from embryos by vortexing in calcium-free Ringer's solution with 1 mM EDTA at 4° C. The embryos were then pelleted and washed with fresh calcium free Ringer's solution 5 times before being resuspended in cholesterol assay reaction buffer and were then lysed by sonication using a Sonifier 450 (Branson). Cholesterol levels in the embryo lysate were measured with an Amplex Red Cholesterol Assay Kit (Invitrogen) and Flex station II (Bucher Biotec). The total protein concentration of the embryo lysate was measured using a DC protein assay (Bio-Rad Laboratories) and SpectraMax plus (Molecular Devices).

Compound	anti-angiogenetic activity of aplexone analogs (inhibition of CVP formation / venous angiogenesis) [1]	also measured
Cc1ccc(S(=O)(=O)N2CC(C(C)O)=CC[C@@H]2c2ccccc2)cc1 (stereo partly shown) [Compound 6]	did not inhibit the CVP formation	
C=CCCC(=O)C1=CCC(c2ccccc2)N(S(=O)(=O)c2ccc(C)cc2)C1 (stereo not shown) [Compound 8]	showed the bioactivity of aplexone albeit to a lesser extent	
CC(=O)C1=CCC(c2ccccc2)NC1 (stereo not shown) [Compound 11]	failed to inhibit the formation of CVP	
CC(=O)C1=CCC(c2ccccc2)N(Cc2ccccc2)C1 (stereo not shown) [Compound 12]	failed to inhibit the formation of CVP	
CC(=O)C1=CCC(c2ccccc2)N(S(C)(=O)=O)C1 (stereo not shown) [Compound 13]	failed to inhibit the formation of CVP	anti-angiogenetic activity of aplexone analogs (inhibition of CVP formation / venous angiogenesis) ([1]; listed as AP13): normal venous angiogenesis; embryonic cholesterol levels (HMGCR pathway): normal cholesterol levels
CC(=O)C1=CCCN(S(=O)(=O)c2ccc(C)cc2)C1 [Compound 16]	developed a single-lumen caudal vein like aplexone, albeit in lower efficiency	
CC(=O)C1=CCC(c2ccccc2)N(S(=O)(=O)c2ccccc2)C1 (stereo not shown) [Compound 17]	showed inhibitory activity for venous angiogenesis	
CC(=O)C1=CCC(c2ccccc2)N(S(=O)(=O)c2ccccc2C)C1 (stereo not shown) [Compound 18]	without showing much decrease in the activity	
CC(=O)C1=CCC(c2ccccc2)N(S(=O)(=O)c2cccc(C)c2)C1 (stereo not shown) [Compound 19]	without showing much decrease in the activity	
CC(=O)C1=CCC(c2ccccc2)N(S(=O)(=O)c2ccc(Cl)cc2)C1 (stereo not shown) [Compound 20]	showed inhibitory activity for venous angiogenesis	
CC(=O)C1=CCC(c2ccc(F)cc2)N(S(=O)(=O)c2ccc(C)cc2)C1 (stereo not shown) [Compound 24]	abolished the biological activity	
CC(=O)C1=CCC(c2ccc(Cl)cc2)N(S(=O)(=O)c2ccc(C)cc2)C1 (stereo not shown) [Compound 25]	diminished the antiangiogenic activity	
CC(=O)C1=CCC(c2ccc(C)cc2)N(S(=O)(=O)c2ccc(C)cc2)C1 (stereo not shown) [Compound 26]	active	ranking in the angiogenesis test [1]: most active
CC(=O)C1=CCC(c2ccc(Cl)c(Cl)c2)N(S(=O)(=O)c2ccc(C)cc2)C1 (stereo not shown) [Compound 31]	not active	
CC(=O)C1=CCC(c2ccc3c(c2)OCO3)N(S(=O)(=O)c2ccc(C)cc2)C1 (stereo not shown) [Compound 32]	not active	
CC(=O)C1=CCC(c2cccs2)N(S(=O)(=O)c2ccc(C)cc2)C1 (stereo not shown) [Compound 33]	active	ranking in the angiogenesis test [1]: most active
CC(=O)C1=CCC(c2ccco2)N(S(=O)(=O)c2ccc(C)cc2)C1 (stereo not shown) [Compound 34]	inactive	
CC(=O)C1=CCC(c2ccc(C)o2)N(S(=O)(=O)c2ccc(C)cc2)C1 (stereo not shown) [Compound 35]	inactive	
CC(=O)C1=CCC(c2cccn2C)N(S(=O)(=O)c2ccc(C)cc2)C1 (stereo not shown) [Compound 36]	inactive	
CC(=O)C1=CCC(c2cccc3ccccc23)N(S(=O)(=O)c2ccc(C)cc2)C1 (stereo not shown) [Compound 37]	inactive	
CC(C)C[C@H](NC(=O)c1ccc(NCc2cnc[nH]2)cc1-c1cccc2ccccc12)C(=O)O [GGTI-2133, reference compound]		CVP formation ([1]; 3 nl of 4 mM GGTI-2133 injected at 1-2 cell stage, 48 hpf): CVP phenotypes reminiscent of aplexone treatment
CC[C@H](C)[C@@H](CO[C@@H](Cc1ccccc1)C(=O)N[C@@H](CCS(C)(=O)=O)C(=O)OC(C)C)NC[C@@H](N)CS [L744,832, reference compound]		CVP formation ([1]; 3 nl of 5 mM L744,832 injected at 1-2 cell stage, 48 hpf): does not affect the formation of the CVP
c1ccc2c(-c3ccncc3)c[nH]c2c1 [Rockout, reference compound]		CVP formation ([1]; 50 μM Rockout, 48 hpf): recapitulated the caudal vein phenotype of aplexone treatment
CC(C)c1c(C(=O)Nc2ccccc2)c(-c2ccccc2)c(-c2ccc(F)cc2)n1CC[C@@H](O)C[C@@H](O)CC(=O)O [atorvastatin, reference compound]		CVP formation at suboptimal level ([1]; 2 μM single agent): normal CVP; CVP formation ([1]; atorvastatin-treated embryos, from 10 hpf, imaged at 48 hpf): phenotypes similar to those observed in embryos exposed to aplexone; embryonic cholesterol levels (HMGCR pathway): reduce cholesterol level significantly
CC(O)(CCO)CC(=O)O (stereo not shown) [mevalonate, reference compound]		effect on aplexone's inhibition of CVP formation ([1]; 1 nl of 2M mevalonate injected, 5 μM aplexone from 2 hpf): blocks the inhibitory effects of aplexone
